This note sets out measurements from paper PMC9933611 (2023).

Molecules are shown by their SMILES.

The test system of assay [1] is Re-engineered ATP-binding aptamer, 4-nt poly-T linker (DNA, aptamer) ACCTGGGGGAGTATTTTTTGCGGAGGAAGGA
Put plainly: fluorescence melting (AF488/BHQ-1). As to conditions: 10 mM Mg2+; 100 mM Tris HCl, pH 6.5; 3 mM ATP, 50 nM aptamer; temperature of 50% ligand release, not a shift.

The subject of assay [2] is Re-engineered ATP-binding aptamer, 70-nt poly-T linker (DNA, aptamer) ACCTGGGGGAGTATTTTTTTTTTTTTTTTTTTTTTTTTTTTTTTTTTTTTTTTTTTTTTTTTTTTTTTTTTTTTTTTTTTTTTTTGCGGAGGAAGGA
Put plainly: fluorescence melting (AF488/BHQ-1). Particulars: 10 mM Mg2+; 100 mM Tris HCl, pH 6.5; 3 mM ATP, 50 nM aptamer; temperature of 50% ligand release, not a shift.

For `Nc1ncnc2c1ncn2[C@@H]1O[C@H](COP(=O)(O)OP(=O)(O)OP(=O)(O)O)[C@@H](O)[C@H]1O`, the T50% in assay [1] is 59.0 ± 0.5 °C; in assay [2] it was 43.2 ± 0.5 °C.
